Reference: the supplement of paper PMC5412046
Where a name gives a salt, the structure may show the parent alone.

These molecules were tested on SB.msgc-1 (assay: AC50 for growth inhibition (viability) (log10 M); higher = less potent). Conditions: SB.msgc-1 (sporadic gastric cancer).
Procedure, shortened: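 Values are log half-maximal activity concentrations from four-parameter fits of DMSO-normalised viability, restricted to high-quality curve classes. Patient-derived gastric cancer cells, hereditary or sporadic, were plated at 500 cells per 1536 well in 5 μL medium and given 23 nL compound in DMSO by pintool across 11 threefold dilutions, the top final concentration being 46 μM. Viability was read by ViewLux luminescence after 48 h and a 30 min CellTiter-Glo step at room temperature.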
In the case of `NCC1CCC(C(=O)O)CC1` (stereo not drawn) [Tranexamic acid], the “AC50 for growth inhibition (log10 M)” value is reported as -5.18.
For `COc1ccc(OC)c(-c2nnc3ccc(-c4ccc(OC)c(O[C@@H]5CCOC5)c4)nn23)c1`, the “AC50 for growth inhibition (log10 M)” value was -4.68.
With `CC(C)(OCc1nn(Cc2ccccc2)c2ccccc12)C(=O)O` [Bindarit] the “AC50 for growth inhibition (log10 M)” value was -5.08.
For `O=C1NC(=O)/C(=C/c2cccc(C(F)(F)F)c2)S1` [SMI-4a], the “AC50 for growth inhibition (log10 M)” value was -4.83.
With `CC(=O)O[C@H]1C[C@@H]2CC[C@@H]3[C@H](CC[C@@]4(C)[C@H]3C[C@H]([N+]3(C)CCCCC3)[C@@H]4OC(C)=O)[C@@]2(C)C[C@@H]1[N+]1(C)CCCCC1` [Pancuronium bromide] the “AC50 for growth inhibition (log10 M)” value was -5.53.
For `N=C(N)NC(=N)NCCc1ccccc1` [Phenformin hydrochloride], the “AC50 for growth inhibition (log10 M)” value was -5.88.
For `CC(=O)[C@H]1CC[C@H]2[C@@H]3C/C=C4/C[C@@H](O)CC[C@]4(C)[C@H]3CC[C@]12C` [Pregnenolone], the “AC50 for growth inhibition (log10 M)” value was -4.88.
For `Cn1cc(-c2ccncc2)c(-c2ccc(OCc3ccc4ccccc4n3)cc2)n1` [MP-10], the “AC50 for growth inhibition (log10 M)” value was -5.13.
For `C/C=C/C(=O)N(CC)c1ccccc1C` [Crotamiton], the “AC50 for growth inhibition (log10 M)” value was -4.98.
With `COC1=CC=CC=C1C2=CC=CC(=C2)C/3=C(O)/C4=CC(=C(Cl)C=C4NC3=O)C#N` [FASN MRK] the “AC50 for growth inhibition (log10 M)” value was -4.37.
For `CN1\C=N/C2=CC=C(NC3=CC(=CC=C3C)NC(=O)C4=CC(=CC=C4)C(C)(C)C#N)C=C2C1=O` [AZ-628], the “AC50 for growth inhibition (log10 M)” value was -5.23.
In the case of `CN1C(=O)/C(=C(NC2=CC=C(I)C=C2F)\C3=C1\N=C/N(C[C@@H](O)CO)C3=O)F` [TAK-733], the “AC50 for growth inhibition (log10 M)” value is reported as -6.48.
In the case of `CC(C)(C)OC(=O)Nc1ccc(-c2cc(C(=O)NCCCCCCC(=O)NO)no2)cc1` [ISOX], the “AC50 for growth inhibition (log10 M)” value is reported as -5.58.
In the case of `C=C[C@H]1CN2CCC1C[C@H]2[C@H](O)c1ccnc2ccccc12` (stereo partly drawn) [Cinchonidine], the “AC50 for growth inhibition (log10 M)” value is reported as -4.98.
`N=C(N)c1ccc(OCCCCCOc2ccc(C(=N)N)cc2)cc1` [Pentamidine isethionate] was tested, and the “AC50 for growth inhibition (log10 M)” value was -4.83.
In the case of `O=[N+]([O-])c1cn2c(n1)OC[C@@H](OCc1ccc(OC(F)(F)F)cc1)C2` [PA-824], the “AC50 for growth inhibition (log10 M)” value is reported as -5.33.
With `Nc1ccccc1NC(=O)c1ccc(CNc2nccc(-c3cccnc3)n2)cc1` [Mocetinostat] the “AC50 for growth inhibition (log10 M)” value was -5.93.
`COc1cc2ncnc(Nc3cc(Br)c(O)c(Br)c3)c2cc1OC` [WHI-P97] was tested, and the “AC50 for growth inhibition (log10 M)” value was -7.78.
For `COC1=CC=CC(=C1N)\C2=C\C(=O)C3=C(O2)C=CC=C3`, the “AC50 for growth inhibition (log10 M)” value was -4.68.
With `C[S+](=O)([O-])c1cc(F)cc2c3c(n(Cc4ccc(Cl)cc4)c12)[C@@H](CC(=O)O)CC3` [Laropiprant] the “AC50 for growth inhibition (log10 M)” value was -5.43.
`C/C=C/C[C@@H](C)C(=O)[C@H]1C(=O)N[C@@H](C(C)C)C(=O)N(C)CC(=O)N(C)[C@@H](CC(C)C)C(=O)N[C@@H](C(C)C)C(=O)N(C)[C@@H](CC(C)C)C(=O)N[C@@H](C)C(=O)N[C@H](C)C(=O)N(C)[C@@H](CC(C)C)C(=O)N(C)[C@@H](CC(C)C)C(=O)N(C)[C@@H](C(C)C)C(=O)N1C` [Valspodar] was tested, and the “AC50 for growth inhibition (log10 M)” value was -5.08.
`COC(=O)Nc1nc2cc(C(=O)c3cccs3)ccc2[nH]1` [Nocodazole] was tested, and the “AC50 for growth inhibition (log10 M)” value was -7.98.
In the case of `CC(=O)N1CCN(c2ccc(OC[C@H]3CO[C@](Cn4ccnc4)(c4ccc(Cl)cc4Cl)O3)cc2)CC1` [Ketoconazole], the “AC50 for growth inhibition (log10 M)” value is reported as -4.83.
`ClC1=C[NH]N=C1C\2NC(=N\C3=C2C(=O)CCC3)/NC4=NC5=CC=CC=C5O4` (stereo not drawn) was tested, and the “AC50 for growth inhibition (log10 M)” value was -4.78.
In the case of `Cc1ccc(-c2cc(C(F)(F)F)nn2-c2ccc([S+](N)(=O)[O-])cc2)cc1` [Celecoxib], the “AC50 for growth inhibition (log10 M)” value is reported as -4.78.
In the case of `CCc1cccc(CC)c1NC(=O)N1Cc2[nH]nc(NC(=O)c3ccc(N4CCN(C)CC4)cc3)c2C1`, the “AC50 for growth inhibition (log10 M)” value is reported as -4.63.
In the case of `C=CCn1c(=O)c2cnc(Nc3ccc(N4CCN(C)CC4)cc3)nc2n1-c1cccc(C(C)(C)O)n1` [MK-1775], the “AC50 for growth inhibition (log10 M)” value is reported as -6.43.
For `C[C@@H]1O[C@@H](O[C@H]\2CC[C@]\3(C)[C@@H]4CC[C@]5(C)[C@@H](CC[C@@]5(O)[C@H]4CCC3=C2)C/6=C/OC(=O)/C=C6)[C@H](O)[C@H](O)[C@@H]1O` [Proscillaridin], the “AC50 for growth inhibition (log10 M)” value was -7.68.
For `N#CC1(c2cccc(C(=O)Nc3cc(Oc4ccc5nc(NC(=O)C6CC6)sc5n4)ccc3F)c2Cl)CC1` [Takeda-6d], the “AC50 for growth inhibition (log10 M)” value was -5.73.
`O=C(Nc1cccc(Br)c1)c1cccc([S+](=O)([O-])N2CCCCCC2)c1` [Ak-7] was tested, and the “AC50 for growth inhibition (log10 M)” value was -4.73.
With `CCc1cc(/C(C)=N/OCc2ccc(C3CCCCC3)c(C(F)(F)F)c2)ccc1CN1CC(C(=O)O)C1` [BAF-312] the “AC50 for growth inhibition (log10 M)” value was -4.73.
For `N=C(N)NC(=N)N1CCOCC1` [Moroxydine], the “AC50 for growth inhibition (log10 M)” value was -4.78.
With `CCn1c(=O)c2c(nc(/C=C/c3ccc(OC)c(OC)c3)n2C)n(CC)c1=O` [Istradefylline] the “AC50 for growth inhibition (log10 M)” value was -4.73.
For `C[C@@H](Oc1cc(-n2cnc3ccc(CN4CCN(C)CC4)cc32)sc1C(N)=O)c1ccccc1C(F)(F)F`, the “AC50 for growth inhibition (log10 M)” value was -7.13.
For `COc1ccc(C(=O)N2CCCC2=O)cc1` [Aniracetam], the “AC50 for growth inhibition (log10 M)” value was -4.68.
`CCCCCCCCOc1ccccc1C(=O)Nc1ccc(C(=O)OCC[N+](C)(CC)CC)cc1` [Octylonium bromide] was tested, and the “AC50 for growth inhibition (log10 M)” value was -4.68.
With `COc1cc2c(Nc3ccc(NC(=O)c4ccccc4)cc3)ncnc2cc1OCCCN1CCOCC1` the “AC50 for growth inhibition (log10 M)” value was -4.83.
`COCCCN1CCC(NC(=O)c2cc(Cl)c(N)c3c2OCC3)CC1` [Prucalopride] was tested, and the “AC50 for growth inhibition (log10 M)” value was -4.58.
For `Cc1cc(/C=c2/sc3nc4ccccc4n3c2=O)c(C)n1-c1ccccc1` [ITX3], the “AC50 for growth inhibition (log10 M)” value was -4.88.
For `CCc1cncnc1N1CCN(Cc2nc3cc(C(F)(F)F)ccc3[nH]2)CC1`, the “AC50 for growth inhibition (log10 M)” value was -5.13.
For `O=[N+]([O-])c1ccc(Nc2ccccc2-c2ccccc2)c2nonc12`, the “AC50 for growth inhibition (log10 M)” value was -4.53.
In the case of `O=C(Nc1ccc(OC(F)(F)F)cc1)c1sccc1NCc1ccnc2ccccc12` [OSI-930], the “AC50 for growth inhibition (log10 M)” value is reported as -4.73.
In the case of `CC[C@H]1/C=C\C=C/C[C@@H](C)[C@H](O)[C@@](C)(O)C(=O)[C@@H](C)[C@H](O)[C@@H](C)C(=O)[C@@H](C)[C@H](O)[C@@H](C)/C=C/C(=O)O[C@@H]2[C@H](C)[C@H](CC1)O[C@]1(CC[C@H](C)[C@H](C[C@@H](C)O)O1)[C@H]2C` [Oligomycin A], the “AC50 for growth inhibition (log10 M)” value is reported as -8.83.
`Cc1nc(Nc2ncc(C(=O)Nc3c(C)cccc3Cl)s2)cc(N2CCN(CCO)CC2)n1` [Dasatinib] was tested, and the “AC50 for growth inhibition (log10 M)” value was -5.73.
With `COc1cc(Cl)cn2c(-c3cccc(NC4CNC4)n3)cnc12` the “AC50 for growth inhibition (log10 M)” value was -4.68.
In the case of `CNC(=O)N1\N=C(\C2=CC=C(N)C=C2)C3=CC4=C(OCO4)C=C3CC1C` (stereo not drawn), the “AC50 for growth inhibition (log10 M)” value is reported as -5.08.
In the case of `CSCC[C@H](NC(=O)[C@H](Cc1c[nH]c2ccccc12)NC(=O)CCNC(=O)OC(C)(C)C)C(=O)N[C@@H](CC(=O)O)C(=O)N[C@@H](Cc1ccccc1)C(N)=O` [Pentagastrin], the “AC50 for growth inhibition (log10 M)” value is reported as -5.28.
For `CC[C@]1(O)C[C@H]2CN(CCC3=C([NH]C4=C3C=CC=C4)[C@@](C2)(C(=O)OC)C5=CC6=C(C=C5OC)N(C=O)[C@H]7[C@](O)([C@H](OC(C)=O)[C@]8(CC)\C=C/C[N@@]9CC[C@]67[C@H]89)C(=O)OC)C1` [Vincristine sulfate], the “AC50 for growth inhibition (log10 M)” value was -8.48.
With `CC[C@@H]1C(=O)N(C)c2cnc(Nc3ccc(C(=O)NC4CCN(C)CC4)cc3OC)nc2N1C1CCCC1` [BI-2536] the “AC50 for growth inhibition (log10 M)” value was -7.28.
With `CC1(C)Cc2c(sc(NC(=S)NC(=O)c3ccccc3)c2C(=O)O)CO1` the “AC50 for growth inhibition (log10 M)” value was -4.53.
For `CC[C@]1(O)C[C@@H]2CN(CCc3c([nH]c4ccccc34)[C@@](C(=O)OC)(c3cc4c(cc3OC)N(C)[C@H]3[C@@](O)(C(N)=O)[C@H](O)[C@]5(CC)C=CCN6CC[C@]43[C@@H]65)C2)C1` [Vindesine sulfate], the “AC50 for growth inhibition (log10 M)” value was -8.68.
With `CCOC(=O)N[C@@H]1CC[C@@H]2[C@@H](C1)C[C@H]1C(=O)O[C@H](C)[C@H]1[C@H]2/C=C/c1ccc(-c2cccc(F)c2)cn1` [Vorapaxar] the “AC50 for growth inhibition (log10 M)” value was -4.78.
For `CC(C)n1c(/C=C/[C@H](O)C[C@H](O)CC(=O)[O-])c(-c2ccc(F)cc2)c2ccccc21` [Fluvastatin], the “AC50 for growth inhibition (log10 M)” value was -5.38.
`CC[C@H](/C=C/[C@@H](C)[C@H]1CC[C@H]2[C@@H]3CC=C4C[C@@H](O)CC[C@]4(C)[C@H]3CC[C@]12C)C(C)C` [Stigmasterol] was tested, and the “AC50 for growth inhibition (log10 M)” value was -5.19.
In the case of `CC(=O)Nc1nc(C)c(-c2ccc(Cl)c([S+](=O)([O-])NCCO)c2)s1` [PIK-93], the “AC50 for growth inhibition (log10 M)” value is reported as -5.83.
For `Nc1nc(NCCNc2ncc(-n3ccnc3)c(-c3ccc(Cl)cc3Cl)n2)ccc1[N+](=O)[O-]`, the “AC50 for growth inhibition (log10 M)” value was -5.68.
For `C=CC[C@@H]1/C=C(\C)C[C@H](C)C[C@H](OC)[C@H]2O[C@@](O)(C(=O)C(=O)N3CCCC[C@H]3C(=O)O[C@H](/C(C)=C/[C@@H]3CC[C@@H](O)[C@H](OC)C3)[C@H](C)[C@@H](O)CC1=O)[C@H](C)C[C@@H]2OC` [FK-506], the “AC50 for growth inhibition (log10 M)” value was -5.18.
In the case of `COC(=O)\C1=C\CCN(C)C1` [Arecoline], the “AC50 for growth inhibition (log10 M)” value is reported as -4.68.
